Molecules are shown by their SMILES. Where two headings read alike, the source gives them in different places.

One data set addresses T1, PDE-VI (Bos taurus, UniProt P11541+P23439).
T1 sequence (P11541 2-856 limits assumed): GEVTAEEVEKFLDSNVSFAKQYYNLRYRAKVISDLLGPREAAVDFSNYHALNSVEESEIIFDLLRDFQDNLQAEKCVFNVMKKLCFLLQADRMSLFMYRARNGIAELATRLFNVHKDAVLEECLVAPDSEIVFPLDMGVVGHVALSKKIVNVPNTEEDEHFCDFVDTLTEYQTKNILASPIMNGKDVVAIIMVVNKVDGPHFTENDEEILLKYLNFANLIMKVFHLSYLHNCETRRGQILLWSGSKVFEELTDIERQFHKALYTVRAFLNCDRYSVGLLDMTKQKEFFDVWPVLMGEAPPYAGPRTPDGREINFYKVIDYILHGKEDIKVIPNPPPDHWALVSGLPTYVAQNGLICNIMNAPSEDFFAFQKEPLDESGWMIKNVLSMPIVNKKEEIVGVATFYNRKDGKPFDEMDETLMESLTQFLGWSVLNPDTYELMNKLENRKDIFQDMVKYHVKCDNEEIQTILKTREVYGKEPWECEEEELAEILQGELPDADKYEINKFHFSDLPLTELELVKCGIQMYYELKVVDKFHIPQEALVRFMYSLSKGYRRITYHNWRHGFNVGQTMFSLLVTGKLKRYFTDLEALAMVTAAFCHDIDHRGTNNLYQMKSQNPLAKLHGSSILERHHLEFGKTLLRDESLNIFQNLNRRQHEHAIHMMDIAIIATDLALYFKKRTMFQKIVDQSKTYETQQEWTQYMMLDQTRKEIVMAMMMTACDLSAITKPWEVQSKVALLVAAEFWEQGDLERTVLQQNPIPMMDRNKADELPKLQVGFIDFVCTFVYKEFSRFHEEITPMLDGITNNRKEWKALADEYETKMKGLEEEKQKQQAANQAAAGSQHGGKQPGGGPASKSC
T1 sequence (P23439 2-850 limits assumed): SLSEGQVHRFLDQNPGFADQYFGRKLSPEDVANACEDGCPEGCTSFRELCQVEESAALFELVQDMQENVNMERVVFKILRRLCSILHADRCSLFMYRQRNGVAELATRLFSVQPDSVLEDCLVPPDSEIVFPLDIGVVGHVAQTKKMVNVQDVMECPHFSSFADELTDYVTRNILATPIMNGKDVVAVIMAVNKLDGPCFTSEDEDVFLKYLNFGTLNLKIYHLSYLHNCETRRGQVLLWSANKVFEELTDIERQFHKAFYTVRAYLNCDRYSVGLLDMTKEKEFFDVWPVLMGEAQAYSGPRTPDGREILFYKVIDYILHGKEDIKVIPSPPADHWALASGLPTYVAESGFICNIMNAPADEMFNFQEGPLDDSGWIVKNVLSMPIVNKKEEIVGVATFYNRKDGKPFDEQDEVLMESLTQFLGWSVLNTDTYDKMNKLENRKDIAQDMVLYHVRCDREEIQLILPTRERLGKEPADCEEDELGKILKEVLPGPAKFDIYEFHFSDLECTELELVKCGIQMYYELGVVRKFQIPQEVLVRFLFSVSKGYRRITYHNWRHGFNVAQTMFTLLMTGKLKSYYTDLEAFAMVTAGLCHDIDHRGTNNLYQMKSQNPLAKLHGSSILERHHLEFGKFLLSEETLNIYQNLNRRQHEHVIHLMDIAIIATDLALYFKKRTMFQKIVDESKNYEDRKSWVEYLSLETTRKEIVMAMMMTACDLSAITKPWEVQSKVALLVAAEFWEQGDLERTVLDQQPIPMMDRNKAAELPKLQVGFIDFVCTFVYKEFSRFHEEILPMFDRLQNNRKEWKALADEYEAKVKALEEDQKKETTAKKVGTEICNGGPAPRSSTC
Nature of the data set: In vitro inhibition of phosphodiesterases (CEREP): PDE-VI.

For another data set, the target named is PDE-II (Homo sapiens, UniProt O00408). Nature of the data set: In vitro inhibition of phosphodiesterases (CEREP): PDE-II.
The nature of data set [1]: Plasma pharmacokinetics of sildenafil and its N-oxide. The data set is classed as in vivo. The conditions noted are these: male, NMRI, mouse, mice; for Kp: brain, read-out: Brain/plasma ratio; for AUC: read-out: AUC0→end; for AUC(0-inf): Tend = ∞. On the procedure:
Liquid Chromatography-Tandem Mass Spectrometry (LC-MS/MS) was performed using a Sciex API4000 LC-MS/MS. […] Compound peak area was used for quantification. The calibration curves were fitted to the model y=A+Bx+Cx^2 (y is the peak area of the analyte, x is the nominal calibration level in ng/ml (plasma) or ng/g (brain), A is the intercept, B is the slope and C is the description of the curvature). 1/x^2 weighing was used. LC-MS/MS system performance was monitored using a reference solution injected at standard intervals. […] The Lower Limit Of Quantification (LLOQ) was established at 1.00 ng/ml and 5.00 ng/brain, for plasma and brain samples, respectively. Reversed phase HPLC was performed using gradient elution by a Hypersil BDS C18 100×4.6 mm 3 μm analytical column, with a temperature of 45° C. and a flow of 1.00 ml/min: […]

A further data set deals with PDE-III (Homo sapiens, UniProt Q14432). The experiment in a line: In vitro inhibition of phosphodiesterases (CEREP): PDE-III.
The target of a further data set is PDE-V (Homo sapiens, UniProt O76074). The experiment in a line: In vitro inhibition of phosphodiesterases (CEREP): PDE-V.
A further data set concerns PDE-I. The experiment in a line: In vitro inhibition of phosphodiesterases (CEREP): PDE-I. The conditions noted are these: bovine brain.

Sequence of PDE-III (Q14432 674-1093 limits assumed): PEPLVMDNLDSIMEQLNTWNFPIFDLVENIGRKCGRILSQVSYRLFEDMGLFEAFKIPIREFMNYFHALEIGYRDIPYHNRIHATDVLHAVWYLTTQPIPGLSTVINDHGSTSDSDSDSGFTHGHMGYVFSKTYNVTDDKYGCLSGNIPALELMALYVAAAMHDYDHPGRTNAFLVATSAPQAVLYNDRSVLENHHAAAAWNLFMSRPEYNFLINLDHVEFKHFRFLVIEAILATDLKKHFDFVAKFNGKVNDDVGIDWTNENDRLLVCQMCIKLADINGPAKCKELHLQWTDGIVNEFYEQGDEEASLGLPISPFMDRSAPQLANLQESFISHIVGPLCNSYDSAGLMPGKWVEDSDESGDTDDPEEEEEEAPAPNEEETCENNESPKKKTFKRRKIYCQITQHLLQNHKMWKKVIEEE
Sequence of PDE-II (O00408 whole entry): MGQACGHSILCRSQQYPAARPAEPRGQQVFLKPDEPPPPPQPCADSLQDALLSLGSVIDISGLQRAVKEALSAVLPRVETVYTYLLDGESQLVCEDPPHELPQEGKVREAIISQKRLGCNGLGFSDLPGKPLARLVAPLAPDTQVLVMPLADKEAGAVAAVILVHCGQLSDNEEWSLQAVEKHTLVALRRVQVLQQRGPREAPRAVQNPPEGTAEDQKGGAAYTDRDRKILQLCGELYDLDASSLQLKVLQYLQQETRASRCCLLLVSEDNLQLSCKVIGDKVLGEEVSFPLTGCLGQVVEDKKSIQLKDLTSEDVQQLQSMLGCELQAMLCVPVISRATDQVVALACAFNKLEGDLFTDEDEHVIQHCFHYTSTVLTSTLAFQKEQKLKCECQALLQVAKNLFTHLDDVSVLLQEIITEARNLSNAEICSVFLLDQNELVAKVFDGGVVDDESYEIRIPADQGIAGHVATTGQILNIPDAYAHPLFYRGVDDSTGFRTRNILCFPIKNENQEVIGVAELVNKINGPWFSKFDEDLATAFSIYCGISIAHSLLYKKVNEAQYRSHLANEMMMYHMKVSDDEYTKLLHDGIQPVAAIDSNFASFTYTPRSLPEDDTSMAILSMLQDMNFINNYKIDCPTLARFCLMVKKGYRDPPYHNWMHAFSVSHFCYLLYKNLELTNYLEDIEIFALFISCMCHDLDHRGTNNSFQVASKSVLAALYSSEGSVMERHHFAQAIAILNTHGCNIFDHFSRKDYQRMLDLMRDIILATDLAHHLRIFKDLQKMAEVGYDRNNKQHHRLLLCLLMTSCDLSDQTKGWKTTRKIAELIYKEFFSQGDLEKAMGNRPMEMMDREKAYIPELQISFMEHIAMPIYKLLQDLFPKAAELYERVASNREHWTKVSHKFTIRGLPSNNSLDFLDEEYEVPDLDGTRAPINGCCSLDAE

For orientation: IC50 means the concentration that inhibits the measured activity by half. A high value points to weaker potency in that assay. The Tmax is the time from dosing to the highest level. Broadly, the half-life is the time needed for the level to fall by half in the phase considered. Usually AUC(0-inf) stands for the area under the concentration-time curve extrapolated to infinity. Broadly, the Cmax is the highest concentration seen after dosing. One may read the Vd as the apparent volume that relates the amount in the body to the concentration in plasma or blood. One may read the clearance as a measure of how efficiently the substance is removed, as volume per time. The term bioavailability denotes the share of a dose that reaches the circulation, judged against a reference dose that is usually intravenous. Read a low bioavailability as little systemic uptake. For `CCCc1nn(C)c2c(=O)[nH]c(-c3cc(S(=O)(=O)N4CC[N+](C)([O-])CC4)ccc3OCC)nc12` [Sildenafil-N-oxide, 1-[[3-(6,7-dihydro-1-methyl-7-oxo-3-propyl-1H-pyrazolo[4,3-d]pyrimidin-5-yl)-4-ethoxyphenyl]sulfonyl]-4-methyl-4-oxido-piperazine], the IC50 was 1000 nM against PDE-VI, above 10000 nM against PDE-II, above 10000 nM at PDE-III and 200 nM against PDE-V. The Kp in data set [1] (iv, i.v. 1 mg/kg) was 0.5; in data set [1] (po, p.o. 10 mg/kg), 2.5. In addition, the Tmax in data set [1] (iv, plasma, i.v. 1 mg/kg) was found to be 0 h; in data set [1] (po, plasma, p.o. 10 mg/kg), 1 h. The half-life in data set [1] (iv, plasma, i.v. 1 mg/kg) was 0.4 h; in data set [1] (po, plasma, p.o. 10 mg/kg), 5.1 h. Besides, the AUC in data set [1] (iv, plasma, i.v. 1 mg/kg, Tend = 3 hrs) was 125 ng·h/mL; in data set [1] (po, plasma, p.o. 10 mg/kg, Tend = 24 hrs), 10.8 ng·h/mL. Further, the total exposure AUC(0-inf) in data set [1] (iv, plasma, i.v. 1 mg/kg) came to 125 ng·h/mL; in data set [1] (po, plasma, p.o. 10 mg/kg), 18.8 ng·h/mL. Besides, the Cmax is 495 ng/mL in data set [1] (iv, plasma, i.v. 1 mg/kg, extrapolated to T0 (time zero), read-out: Cmax (C0)) and 2.7 ng/mL in data set [1] (po, plasma, p.o. 10 mg/kg, read-out: Cmax). The Vd in data set [1] (plasma, iv, i.v. 1 mg/kg) stood at 5 L/kg. Moreover, the clearance in data set [1] (plasma, iv, i.v. 1 mg/kg) was 133 mL/min/kg. Besides, the bioavailability in data set [1] (plasma, po, 10 mg/kg, i.v.) turned out to be 1.5%. In addition, the “activity relative to the parent compound sildenafil” value at PDE-V was “about one tenth”. Also, on PDE-V (from Table 5), the “fold less potent than sildenafil” value is recorded as 10 fold. Besides, in the data set with PDE-I, the “pIC50 PDE-I” value came to 5.8.

Source of the values: US20090005395A1 (Solvay Pharmaceuticals, B.V., priority 2007, published 2009).
